From PubChem BioAssay AID493144 (Sanford-Burnham Center for Chemical Genomics, 2011) come the findings set out here.

Activity calls are given as the source filed them. How the calls were made is not given here. Where only a bound is given, the exact number is not on record here.

The target in the experiment is Intestinal-type alkaline phosphatase (Homo sapiens) (UniProt P09923). In words: human IAP inhibitors, SAR follow-up, mouse IAP inhibitor project, biochemical, human enzyme for mouse series (AID 493144). As to conditions: purified human intestinal alkaline phosphatase, enzymatic activity.
Intestinal-type alkaline phosphatase (Homo sapiens), sequence (P09923 whole entry, looked up): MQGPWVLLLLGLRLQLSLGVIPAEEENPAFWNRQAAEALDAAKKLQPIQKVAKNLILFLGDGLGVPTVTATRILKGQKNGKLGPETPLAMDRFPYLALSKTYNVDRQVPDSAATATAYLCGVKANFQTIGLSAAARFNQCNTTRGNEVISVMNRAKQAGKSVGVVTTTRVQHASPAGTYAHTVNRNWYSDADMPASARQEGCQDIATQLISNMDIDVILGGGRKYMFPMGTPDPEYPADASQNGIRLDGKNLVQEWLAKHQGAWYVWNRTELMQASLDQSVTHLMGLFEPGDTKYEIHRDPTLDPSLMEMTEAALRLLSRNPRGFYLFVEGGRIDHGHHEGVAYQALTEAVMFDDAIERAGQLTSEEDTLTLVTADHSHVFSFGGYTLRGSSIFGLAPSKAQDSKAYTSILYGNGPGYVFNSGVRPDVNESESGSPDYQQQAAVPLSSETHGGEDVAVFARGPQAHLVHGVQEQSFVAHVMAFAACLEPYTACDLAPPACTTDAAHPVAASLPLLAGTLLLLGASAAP
The IC50 is the concentration needed to halve the response being measured. On to `O=C(Nc1cccc(-c2cccc(F)c2)c1)C1CCN(Cc2ccc(CO)o2)CC1`, for which the IC50 is > 100 µM (inactive).

In the case of `S=C(NCCC(c1ccccc1)c1ccccc1)Nc1ccc(Cl)c(Cl)c1`, the IC50 is > 100 µM (inactive).

Take `C=CCn1cc(CN2CCC(C(=O)Nc3cccc(-c4cccc(Cl)c4)c3)CC2)c(C)n1`: the IC50 was > 100 µM (inactive).

For the compound `S=C(NCCC(c1ccccc1)c1ccccc1)Nc1ccccc1`, the IC50 was > 100 µM (inactive).

On to `CCn1cc(CN2CCC(C(=O)Nc3cccc(-c4cccc(F)c4)c3)CC2)cn1`, for which the IC50 is > 100 µM (inactive).

As for `S=C(NCCC(c1ccccc1)c1ccccc1)Nc1ccc(Cl)cc1`, the IC50 is > 100 µM (inactive).

In the case of `Cc1cccc(NC(=S)NCCC(c2ccccc2)c2ccccc2)c1C`, the IC50 was > 100 µM (inactive).

Take `Cc1ccc(NC(=O)CCNS(=O)(=O)c2ccc3[nH]c(=O)oc3c2)cc1C`: the IC50 is > 100 µM (inactive).

Regarding `CN(C)S(=O)(=O)c1cccc(NC(=S)NCCC(c2ccccc2)c2ccccc2)c1`, the IC50 was > 100 µM (inactive).

On to `Cc1c(Cl)cccc1NC(=S)NCCC(c1ccccc1)c1ccccc1`, for which the IC50 is > 100 µM (inactive).

`C=CCn1cc(CN2CCC(C(=O)Nc3cccc(-c4cccc(F)c4)c3)CC2)c(C)n1`: the IC50 was > 100 µM (inactive).

Regarding `CC(C)n1cc(CN2CCC(C(=O)Nc3cccc(-c4cccc(Cl)c4)c3)CC2)cn1`, the IC50 is > 100 µM (inactive).

Regarding `COc1ccc(Cl)cc1NC(=S)NCCC(c1ccccc1)c1ccccc1`, the IC50 is > 100 µM (inactive).

For the compound `CCOC(=O)c1ccc(NC(=S)NCCC(c2ccccc2)c2ccccc2)cc1`, the IC50 is > 100 µM (inactive).

Take `COc1ccc(Cl)cc1Nc1nc(-c2ccc(O)c(O)c2)cs1`: the IC50 is > 100 µM (inactive).

Regarding `CCn1cc(CN2CCC(C(=O)Nc3cccc(-c4cccc(OC)c4)c3)CC2)c(C)n1`, the IC50 was > 100 µM (inactive).

For the compound `COC(=O)c1cc(NC(=S)NCCC(c2ccccc2)c2ccccc2)cc(C(=O)OC)c1`, the IC50 is > 100 µM (inactive).

For the compound `Cc1ccc(C)c(NC(=S)NCCC(c2ccccc2)c2ccccc2)c1`, the IC50 was > 100 µM (inactive).

`Cc1c(Cl)cccc1Nc1nc(-c2ccc(O)c(O)c2)cs1`: the IC50 is > 100 µM (inactive).

Take `Fc1ccccc1NC(=S)NCCC(c1ccccc1)c1ccccc1`: the IC50 is > 100 µM (inactive).

Consider `Cc1ccc(CN2CCC(C(=O)Nc3cccc(-c4cccc(F)c4)c3)CC2)o1`, for which the IC50 is > 100 µM (inactive).

Turning to `S=C(NCCC(c1ccccc1)c1ccccc1)Nc1cccc(Cl)c1`, the IC50 is > 100 µM (inactive).

For `Cc1ccc(NC(=S)NCCC(c2ccccc2)c2ccccc2)cc1C`, the IC50 was > 100 µM (inactive).

As for `O=C(Nc1cccc(-c2cccc(Cl)c2)c1)C1CCN(Cc2ccc(CO)o2)CC1`, the IC50 is > 100 µM (inactive).

As for `CCn1cc(CN2CCC(C(=O)Nc3cccc(-c4cccc(OC)c4)c3)CC2)cn1`, the IC50 was > 100 µM (inactive).

In the case of `Fc1ccc(NC(=S)NCCC(c2ccccc2)c2ccccc2)cc1Cl`, the IC50 is > 100 µM (inactive).

Consider `O=C(CN1C(=O)/C(=C/c2ccco2)SC1=S)Nc1cccc(C(=O)O)c1`, for which the IC50 was > 100 µM (inactive).

For the compound `Cn1cc(CN2CCC(C(=O)Nc3cccc(-c4cccc(Cl)c4)c3)CC2)cn1`, the IC50 was > 100 µM (inactive).

As for `NS(=O)(=O)c1ccc(NC(=S)NCCC(c2ccccc2)c2ccccc2)cc1`, the IC50 is > 100 µM (inactive).

As for `S=C(NCCC(c1ccccc1)c1ccccc1)Nc1ccc(Cl)cc1Cl`, the IC50 is > 100 µM (inactive).

Take `CCc1ccccc1Nc1nc(-c2ccc(O)c(O)c2)cs1`: the IC50 was 21.4 µM.

Take `CCCn1ncc(CN2CCC(C(=O)Nc3cccc(-c4cccc(F)c4)c3)CC2)c1C`: the IC50 is > 100 µM (inactive).

As for `O=C(CN1C(=O)/C(=C\c2ccco2)SC1=S)Nc1ccccc1C(=O)O`, the IC50 was > 100 µM (inactive).

For `Cc1cc(C)cc(NC(=S)NCCC(c2ccccc2)c2ccccc2)c1`, the IC50 is > 100 µM (inactive).

In the case of `Oc1ccc(-c2csc(Nc3cccc4ccccc34)n2)cc1O`, the IC50 was 44.1 µM.

Turning to `CCn1nc(C)c(CN2CCC(C(=O)Nc3cccc(-c4cccc(F)c4)c3)CC2)c1C`, the IC50 was > 100 µM (inactive).

In the case of `CC(C)N1CCC(=NNC(=O)c2cc(O)c(O)c(O)c2)CC1`, the IC50 was > 100 µM (inactive).

Regarding `O=C(CN1C(=O)/C(=C/c2ccco2)SC1=S)Nc1ccc(C(=O)O)cc1`, the IC50 was > 100 µM (inactive).

`CCn1cc(CN2CCC(C(=O)Nc3cccc(-c4cccc(Cl)c4)c3)CC2)cn1`: the IC50 is > 100 µM (inactive).

As for `CCn1c(SCC(=O)c2ccc(O)c(O)c2)nnc1-c1ccccc1OC`, the half-maximal inhibitory concentration (IC50) was 14 µM.

Turning to `Cc1c(CN2CCC(C(=O)Nc3cccc(-c4cccc(Cl)c4)c3)CC2)cnn1C`, the IC50 is > 100 µM (inactive).

With `COc1cc([N+](=O)[O-])ccc1NC(=S)NCCC(c1ccccc1)c1ccccc1`, the IC50 was > 100 µM (inactive).

For `Cc1nn(C(C)C)c(C)c1CN1CCC(C(=O)Nc2cccc(-c3cccc(F)c3)c2)CC1`, the IC50 was > 100 µM (inactive).

For the compound `COc1ccc(C(=O)CSc2n[nH]c(-c3ccccc3)n2)cc1OC`, the IC50 was > 100 µM (inactive).

With `S=C(NCCC(c1ccccc1)c1ccccc1)Nc1ccc(Nc2ccccc2)cc1`, the IC50 is > 100 µM (inactive).

For `Cc1cc(Cl)ccc1NC(=S)NCCC(c1ccccc1)c1ccccc1`, the IC50 is > 100 µM (inactive).

In the case of `CCn1nc(C)c(CN2CCC(C(=O)Nc3cccc(-c4cccc(Cl)c4)c3)CC2)c1C`, the IC50 is > 100 µM (inactive).

Regarding `COCc1ccc(CN2CCC(C(=O)Nc3cccc(-c4cccc(Cl)c4)c3)CC2)o1`, the IC50 was > 100 µM (inactive).

With `COc1cccc(NC(=S)NCCC(c2ccccc2)c2ccccc2)c1`, the IC50 is > 100 µM (inactive).

On to `COc1cccc(-c2cccc(NC(=O)C3CCN(Cc4ccc(CO)o4)CC3)c2)c1`, for which the IC50 is > 100 µM (inactive).

As to `COc1cc(NC(=S)NCCC(c2ccccc2)c2ccccc2)cc(OC)c1`, the IC50 was > 100 µM (inactive).

For the compound `Cc1cc(NC(=O)CCNS(=O)(=O)c2ccc3[nH]c(=O)oc3c2)ccc1Br`, the IC50 was > 100 µM (inactive).

`Cc1cc(=O)oc2cc(NC(=S)NCCC(c3ccccc3)c3ccccc3)ccc12`: the IC50 is > 100 µM (inactive).

Consider `Cc1ccc(NC(=S)NCCC(c2ccccc2)c2ccccc2)cc1`, for which the IC50 was > 100 µM (inactive).

As to `CN1CCC(=NNC(=O)c2cc(O)c(O)c(O)c2)CC1`, the IC50 was > 100 µM (inactive).

For the compound `CC(C)c1ccccc1NC(=S)NCCC(c1ccccc1)c1ccccc1`, the IC50 is > 100 µM (inactive).

As to `COc1ccc(NC(=S)NCCC(c2ccccc2)c2ccccc2)cc1`, the IC50 is > 100 µM (inactive).

In the case of `Cc1nn(C)c(Cl)c1CN1CCC(C(=O)Nc2cccc(-c3cccc(F)c3)c2)CC1`, the IC50 is > 100 µM (inactive).

Take `O=S(=O)(Nc1ncccn1)c1ccc(NC(=S)NCCC(c2ccccc2)c2ccccc2)cc1`: the IC50 is > 100 µM (inactive).

As to `O=C(Nc1cccc(-c2cccc(Cl)c2)c1)C1CCN(C2CCC2)CC1`, the IC50 was > 100 µM (inactive).

Take `CCN1CCN(S(=O)(=O)c2ccc3[nH]c(=O)oc3c2)CC1`: the IC50 was > 100 µM (inactive).

For `Cn1cc(CN2CCC(C(=O)Nc3cccc(-c4cccc(F)c4)c3)CC2)cn1`, the IC50 was > 100 µM (inactive).

In the case of `FC(F)(F)c1cccc(NC(=S)NCCC(c2ccccc2)c2ccccc2)c1`, the IC50 is > 100 µM (inactive).

For the compound `CC(C)n1cc(CN2CCC(C(=O)Nc3cccc(-c4cccc(F)c4)c3)CC2)cn1`, the IC50 is > 100 µM (inactive).

On to `O=[N+]([O-])c1ccc(NC(=S)NCCC(c2ccccc2)c2ccccc2)cc1`, for which the IC50 is > 100 µM (inactive).

For the compound `COc1cccc(-c2cccc(NC(=O)C3CCN(Cc4ccc(C)o4)CC3)c2)c1`, the IC50 was > 100 µM (inactive).

In the case of `CCn1ncc(CN2CCC(C(=O)Nc3cccc(-c4cccc(F)c4)c3)CC2)c1C`, the IC50 was > 100 µM (inactive).

For the compound `CC1(c2ccccc2)CC(C)(C)N(C(=S)Nc2ccccc2)c2ccccc21` (stereo not drawn), the IC50 is > 100 µM (inactive).
